Where two headings read alike, the source gives them in different places.
How the values were obtained:
[1] = system: blood clotting (citrated sheep blood); assay: Activated clotting time (ACT) of EDTA or other anti-coagulant compounds in citrated sheep blood (Example 13)
Protocol: The activated clotting time (ACT) evaluation of anticoagulants was performed in Calcium-reconstituted sheep blood and recorded employing the Hemochron® Response device.
(§1) The ACT measurements were made in citrated sheep blood. 1.9 ml of citrated sheep blood was added to a test tube containing an activator (Hemochron@Celite@ ACT tubes, Lot F8FTE026 from Accriva Diagnostics, Inc.). A target amount of EDTA or other anti-coagulant compounds solution was then added into the test tube. The test tube was gently swirled so that the blood and EDTA or other anti-coagulant compounds was well-mixed. 0.1 ml of 0.3M calcium chloride was then added. The tube was gently shaken before being inserted into the Hemochron Response detector. The ACT read out was recorded and reported. The ACT of the control blood in the absence of any EDTA or other anti-coagulant compounds as first determined to establish a baseline. Then ACT was determined in the presence of different concentrations of EDTA or analogues as a single component.

[2] = system: blood clotting (citrated sheep blood); assay: Net activated clotting time (net ACT) in citrated sheep blood (Examples 3-5); parameters: key: seconds; measured ACT minus blood control ACT (165 s); details: single drug, blood control 165 seconds
Protocol: The activated clotting time (ACT) evaluation of anticoagulants was performed in calcium citrate sheep blood and recorded employing the Hemochron® Response device. The ACT measurements were made in citrated sheep blood. 1.9 ml of citrated sheep blood was added to a test tube containing an activator (Hemochron@Celite@ ACT tubes, Lot F8FTE026 from Accriva Diagnostics, Inc.). A target amount of drug solution was then added into the test tube. The test tube was gently swirled so that the blood and drug were well-mixed. 0.1 ml of 0.3M calcium chloride was then added. The tube was gently shaken before being inserted into the Hemochron Response detector. The ACT read out was recorded and reported. The ACT of the control blood in the absence of any drug as first determined to establish a baseline. Here the blood control measured is 165 seconds. Then ACT was determined in the presence of different concentrations of the drug as a single component. In the following study, the net ACT (measured ACT minus blood control ACT) was utilized to visualize the synergistic effect of direct factor Xa inhibitor (Rivaroxaban) and direct factor IIa inhibitor (Argatroban) drug combinations. The figures are presented in ng/mg wherein the density of blood and tissue are approximately the same.
Example 4 is the continuation of example 3, which employed the same method as in example 3. The only difference is that the direct factor Xa inhibitor Edoxaban is used in place of direct factor Xa inhibitor Rivaroxaban.
Example 5 is the continuation of example 3, which employed the same method as in example 3. The only difference is that the direct factor Xa inhibitor Betrixaban is used in place of direct factor Xa inhibitor Rivaroxaban.

[3] = system: blood clotting (heparinized sheep blood); assay: Net ACT initiated by platelet activation factor (PAF) and CaCl2 in heparinized sheep blood (Examples 6-11)
Protocol: In order to examine the potential synergistic effects between anti-inflammatory agents, direct factor Xa inhibitors, direct factor IIa inhibitors, antiplatelets (P2Y12 inhibitor and glycoprotein IIb/IIIa inhibitor, platelet activation factor and CaCl2 were utilized by measuring ACT. Heparinized sheep blood was used to preserve platelet function.
The activated clotting time (ACT) evaluation initiated by platelet activation factor (PAF) and calcium chloride (CaCl2) was performed in heparinized sheep blood and recorded employing the Hemochron® Response device. […] A target amount of drug solution was then added into the test tube. The test tube was gently swirled so that the blood and drug were well-mixed. […] The tube was gently shaken before being inserted into the Hemochron Response detector. The ACT read out was recorded and reported. The ACT of the control heparinized sheep blood in the absence of any drug as first measured to establish a baseline. […] Then ACT was measured in the presence of different concentrations of the drug measured. Selected drug combinations were then tested to evaluate for potential synergy in action between the drug combination. The net ACT (ACT minus blood control ACT) was utilized to visualize the synergistic effect. […] The figures are presented in ng/mg wherein the density of blood and tissue are approximately the same.

[4] = system: blood clotting (fresh pig blood); assay: Activated clotting time (ACT) of EDTA or analogues in fresh pig blood (Example 12); details: for Increase in clotting time compared to control: control 154 sec; for blood coagulation compared to the blood control: EDTA 200 ng/mg, sodium salts 300 ng/mg
Protocol: The activated clotting time (ACT) evaluation of EDTA or analogues was performed in fresh pig blood and recorded employing the Hemochron® Response device.
as §1, with “fresh pig” for “citrated sheep”, “1.0” for “1.9”, “drug” for “EDTA or other anti-coagulant compounds”

[5] = pH of 1 mg/ml EDTA or analogue in water or phosphate buffer; type: physicochemical
Description: Based on the pH of EDTA or analogues in water and in 0.1M phosphate buffered saline as show in Table 2, EDTA disodium salt or dipotassium salt has a pH close to neutral pH in human body (6.42-6.92), whereas EDTA tetrasodium or trisodium has a very basic pH (>8.0) in human body. EDTA disodium or dipotassium is preferred in the examples.

[6] = as above; type: physicochemical; details: 1 mg/ml in 0.01 M pH 7.4 phosphate buffer, 21.8-22.3 ° C.
[7] = system: porcine coronary artery; assay: In vivo porcine coronary stent implantation: fibrin score and late lumen loss (Examples 25-26); details: Table 9, day 7
Protocol: The drug eluting stent systems containing different anticoagulants prepared as described in Example 11 were evaluated at 3 hours, 6 hours, 1 day, 3 days, 6 days, 7 days, or 28 days following implantation in a porcine coronary artery model.
The porcine model was chosen as this model has been used extensively for stent and angioplasty studies resulting in a large volume of data on the vascular response properties and its correlation to human vascular response (Schwartz et al, Circulation. 2002; 106:1867 1873). The animals were housed and cared for in accordance with the Guide for the Care and Use of Laboratory Animals as established by the National Research Council.
After induction of anesthesia, the left or right femoral artery was accessed using standard techniques and an arterial sheath was introduced and advanced into the artery. Vessel angiography was performed under fluoroscopic guidance, a 7 Fr. guide catheter was inserted through the sheath and advanced to the appropriate location where intracoronary nitroglycerin was administered. An appropriate implantation segment of coronary artery was randomly selected and a 0.014″ guidewire inserted. Quantitative Coronary Angiography (QCA) was performed to document the results. The appropriately size stent was advanced to the deployment site. The balloon was inflated at a steady rate to a pressure sufficient to achieve a balloon to artery ratio of approximately 1.1 to 1.0.
Follow up angiography was performed at the designated timepoint for each of the animals. Late lumen loss (LLL) can be expressed as: […]
The LLL is an indicator of the amount smooth muscle cell (SMC) proliferation or inhibition. It is used to measure efficacy between drugs for SMC proliferation inhibition. The smaller the LLL, the better the efficacy of the drug.
Stented portions of coronary arteries were embedded in methyl methacrylate (MMA), then divided into a target of at least three blocks of approximately similar lengths for histology evaluation. Quantitative histopathological evaluation of stented artery sections was then performed and scored as indicated. For Fibrin formation, scores ranged from 0 to 3, with a score of 0 indicating absent or rare minimal spotting around struts of the stent, a score of 1 indicating the presence of fibrin in small amounts localized only around the struts, a score of 2 indicating the moderately abundant or denser presence of fibrin around and extending beyond the struts, and a score of 3 indicating the presence of abundant and dense fibrin and/or bridging of the fibrin between the struts. The mean score was calculated and reported. The mean of each section was then averaged to provide a mean fibrin score per stent. The smaller the fibrin score, the better efficacy.

[8] = 167 ng/mg, blood control 202 sec
[9] = 1 mg/ml in d-water, 21.8-22.0 ° C.
[10] = single drug, 0.05 ng/mg, PAF & CaCl2, blood control 235 seconds

Molecule: CCCCCCCCCCCCCC[N+](C)(C)Cc1ccccc1.[Cl-] [Benzyldimethyltetradecyl-ammonium chloride]
- Clotting time (ACT) ([1]; 67 ng/mg): 316 s
- Increase in clotting time compared to control ([1]; 67 ng/mg): 114 s
- Clotting time (ACT) ([1]; 100 ng/mg): 421 s
- Increase in clotting time compared to control ([1]; 100 ng/mg): 219 s
- Clotting time (ACT) ([1]; 133 ng/mg): 983 s
- Increase in clotting time compared to control ([1]; 133 ng/mg): 781 s
- Clotting time (ACT) [1, 8]: 1370 s
- Increase in clotting time compared to control [1, 8]: 1168 s

Molecule: COc1ccc(NC(=O)c2ccc(C(=N)N(C)C)cc2)c(C(=O)Nc2ccc(Cl)cn2)c1 [Betrixaban]
- net ACT ([2]; 0.3 ng/mg): 21

Molecule: COc1cc2c(c(OC)c1OC)-c1ccc(OC)c(=O)cc1[C@@H](NC(C)=O)CC2 [Colchicine]
- net ACT [3]: 41 s

Molecule: O=C(O)C(S)C(S)C(=O)O (stereo not drawn) [Dimercaptosuccinic acid (DMSA), Dimercaptosuccinic acid]
- Clotting time (ACT) ([4]; 200 ng/mg): 151 s
- Increase in clotting time compared to control ([4]; 200 ng/mg): -3 s

Molecule: O=C(O)CN(CCN(CC(=O)O)CC(=O)O)CC(=O)O [EDTA dipotassium]
- pH [5, 9]: 6.25
- pH ([5]; in water and phosphate buffered saline, listed as dipotassium salt): 6.42-6.92
- pH [6]: 6.93

Molecule: CC(=O)OCOC(=O)CN(CCN(CC(=O)OCOC(C)=O)CC(=O)OCOC(C)=O)CC(=O)OCOC(C)=O [EDTA tetra acetoxymethyl ester]
- Clotting time (ACT) ([4]; 500 ng/mg): 158 s
- Increase in clotting time compared to control ([4]; 500 ng/mg): 4 s

Molecule: O=C(O)CN(CCN(CC(=O)O)CC(=O)O)CC(=O)O [EDTA tri sodium]
- pH [5, 9]: 9.21
- pH ([5]; in water and phosphate buffered saline): > 8.0
- pH [6]: 7.77

Molecule: O=C(O)CN(CCN(CC(=O)O)CC(=O)O)CC(=O)O [EDTA, ethylenediaminetetraacetic acid]
- Clotting time (ACT) ([4]; 75 ng/mg): 179 s
- Increase in clotting time compared to control ([4]; 75 ng/mg): 25 s
- Clotting time (ACT) ([4]; 100 ng/mg): 247 s
- Increase in clotting time compared to control ([4]; 100 ng/mg): 93 s
- Clotting time (ACT) ([4]; 150 ng/mg): 275 s
- Increase in clotting time compared to control ([4]; 150 ng/mg): 121 s
- Clotting time (ACT) ([4]; 200 ng/mg): >500 s
- Increase in clotting time compared to control ([4]; 200 ng/mg): >346 s
- blood coagulation compared to the blood control [4]: significant delayed blood coagulation

Molecule: O=C(O)CN(CCN(CC(=O)O)CC(=O)O)CC(=O)O [EDTA•2Na•2H2O]
- Clotting time (ACT) ([4]; 100 ng/mg): 191 s
- Increase in clotting time compared to control ([4]; 100 ng/mg): 37 s
- Clotting time (ACT) ([4]; 200 ng/mg): 264 s
- Increase in clotting time compared to control ([4]; 200 ng/mg): 110 s
- Clotting time (ACT) ([4]; 300 ng/mg): 374 s
- Increase in clotting time compared to control ([4]; 300 ng/mg): 220 s
- blood coagulation compared to the blood control ([4]; listed as EDTA disodium salt): The same trend
- pH ([5]; 1 mg/ml in d-water, 21.8-22.0 ° C., listed as EDTA disodium): 6.42
- pH ([5]; in water and phosphate buffered saline, listed as EDTA disodium salt): 6.42-6.92
- pH ([6]; listed as EDTA disodium): 6.92

Molecule: CN1CCc2nc(C(=O)N[C@@H]3C[C@@H](C(=O)N(C)C)CC[C@@H]3NC(=O)C(=O)Nc3ccc(Cl)cn3)sc2C1 [Edoxaban]
- net ACT ([2]; 0.15 ng/mg): 42
- net ACT ([2]; 0.3 ng/mg): 87

Molecule: CCCSc1nc(N[C@@H]2C[C@H]2c2ccc(F)c(F)c2)c2nnn([C@@H]3C[C@H](OCCO)[C@@H](O)[C@H]3O)c2n1 [Ticagrelor]
- net ACT [3, 10]: 18 s

Molecule: CCCCS(=O)(=O)N[C@@H](Cc1ccc(OCCCCC2CCNCC2)cc1)C(=O)O [Tirofiban]
- net ACT [3, 10]: 9 s

Molecule: Dalteparin
- LLL / smooth muscle cell proliferation compared to bare metal control stents [7]: larger LLLs compared to control
- inhibition of fibrin formation compared to bare metal control stents [7]: not effective at inhibiting fibrin formation
